Assay [1] concerns the target T1, Aβ42 (Homo sapiens, UniProt P05067).
T1 construct: human A81-42 monomers (UniProtKB-P05067, a.a. 672-713)
In words: Aβ disaggregation test by SDS-PAGE analysis (PICUP). The settings on record: 25 μM Aβ aggregated 3 days, 50 μM or 500 μM compound, further 3 days. It counts as biochemical. As for the experimental part: In order to confirm Aβ disaggregation in the sample prepared in Example 2.1, SDS-PAGE analysis was performed as follows.
In detail, the stock of ammonium persulfate (APS; 200 mM)and tris (2,2′-bipyridyl)dichlororuthenium (II) hexahydrate (Ru; 10 mM) was prepared in an amber tube (Axygen, MCT-150-X) by using a photo-induced cross-linking of unmodified proteins (PICUP) buffer (0.1 M sodium phosphate (pH 7.4)). The stock was diluted 10-fold in PICUP buffer (APS: 20 mM/Ru: 1 mM). 10 μL of each sample prepared in Example 2.1 was dispensed at the bottom of a 0.5 mL tube (Axygen, PCR-05-C). 1 μL of APS (20 mM) was dispensed on the tube wall and 1 μL of Ru (1 mM) on the tube cap. At this time, in order to prevent the reaction from proceeding, the sample was not mixed with APS and Ru. After closing the tube cap and spin down using a centrifuge, the tube was removed from the centrifuge and exposed to light 3 times per second using an incandescent lamp. 3 μL of 5× reducing sample buffer (w/5% β-mercaptoethanol) was added to each tube. Samples were heated at 95-100° C. for 5 minutes and then cooled on ice.
Then, the PICUP-treated samples were loaded on 4-20% (w/v) tris/glycine gel and electrophoresed at 100V for 1 hour and 30 minutes. After electrophoresis, the gel was separated and confirmed by silver staining.

The test system of assay [2] is 5× FAD mice. Description: Amyloid plaque reduction by oral triflupromazine, Thioflavin S staining. It counts as in vivo. As to conditions: oral 50 mg/kg once every two days for 3 weeks; vs vehicle control mice. The source says: (§1) Transgenic mice (5×FAD; Alzheimer's disease animal model; B6SJL-Tg (APPSwFILon, PSEN1*M146L*L286V)6799Vas/Mmjax)) and wild-type mice were obtained from Jackson Laboratory (Bar Harbor, Maine, USA). 5× FAD mice crossed with wild-type mice and maintained as double hemizygotes. All genotypes were confirmed by PCR analysis using tail DNA according to the standard PCR conditions of the Jackson Laboratory. Four to six mice were housed in a plastic cage in the animal cage and the temperature of the plastic cage was maintained at 21±1° C. in alternating 12 hour light cycle, and the mice were freely fed with food and water.
(§2) Seven-month old 5× FAD mice were orally treated with 50 mg/kg of triflupromazine once every two days for 3 weeks. The control received the same amount of vehicle (1% (w/v) DMSO in PBS).
Mice were anesthetized using 2%(w/v) avertin (20 mg/g, i.p.). The mice were perfused with 0.9%(w/v) NaCl and brains thereof were excised. […] The lysate concentration was measured using the BCA protein assay kit (thermoFisher, cat #232250) according to the manufacturer's instructions. The absorbance was read at 560 nm.
To stain frozen brain with thioflavin S (ThS), the brain was cut to 35 um thickness to create tissue sections using cryostat (Leica CM1800) and then Aβ plaques were stained. […] Images were obtained using a Leica DM2500 fluorescence microscope.

Assay [3] has as its system Total Tau (T-Tau) and phosphorylated Tau (P-Tau). Description: Western blot of total and phosphorylated Tau in brain tissue after oral triflupromazine. It counts as in vivo, mice.
Text: as §1, §2
Mice were anesthetized using 2%(w/v) avertin (20 mg/g, i.p.). The mice were perfused with 0.9%(w/v) NaCl and brains thereof were excised. The hemibrains were fixed overnight at 4° C. in 4° /0(w/v) paraformaldehyde (pH 7.4). For cryopreservation, brains were soaked in 30%(w/v) sucrose for 48 hours. The other hemibrains were dissected into cortical and hippocampal regions and homogenized on ice for 30 minutes in lysis buffer (10 mM Tris-HCl, 5 mM EDTA in 320 mM sucrose, pH 7.4) containing 1× protease inhibitor cocktail. The sample was centrifuged at 13500 rpm for 30 minutes at 4° C. The lysate concentration was measured using the BCA protein assay kit (thermoFisher, cat #232250) according to the manufacturer's instructions. The absorbance was read at 560 nm.
Changes in Tau, a major cause of Alzheimer's dementia and Parkinson's disease, together with Aβ plaques, were confirmed by Western blot analysis. Samples of the prepared tissues were separated by SDS-PAGE and transferred to PVDF membrane. The membrane was treated overnight at 4° C. using the primary antibody. As the primary antibody, antibodies capable of detecting Total Tau (T-Tau) and phosphorylated Tau (P-Tau) were used, and detection was performed using a secondary antibody conjugated with horseradical peroxidase (HRP). The blot development was performed with a Clarity Western ECL substrate (Bio-Rad) according to the manufacturer's instructions.
On the other hand, in wild type mice (Wt), a decrease in total Tau (T-Tau) and phosphorylated Tau (P-Tau) was not observed.
In general terms: In western blotting, separated proteins are transferred to a membrane and probed.

Assay [4] concerns the target T2, Aβ1-42 (Homo sapiens, UniProt P05067).
T2 construct: human A81-42 monomers (UniProtKB-P05067, a.a. 672-713)
In words: Aβ aggregation inhibition test (Thioflavin T analysis). It counts as biochemical. As to conditions: for Aβ aggregation degree compared to the control / amyloid aggregation inhibition effect compared to the control: 2 μM compound, Aβ1-42 50 μM; for Aβ aggregation degree compared to the control: 37° C. 72 hours, control = 100%; for amyloid aggregation inhibition effect compared to the control: 72 hours; for Aggregation (%): 20 μM compound, 50 μM Aβ, 3 days, relative to control (100%). As for the experimental part:
Then, the compound was used diluted by using 6% DMSO (in DW) and used.
Triflupromazine hydrochloride (triflupromazine used in all the examples below is triflupromazine hydrochloride) was dissolved to a concentration of 5 mM in DMSO. The compound was then used diluted with 6% DMSO (in DW).
The Aβ solution was prepared by dissolving human A81-42 monomers (UniProtKB-P05067, a.a. 672-713) to 10 mM concentration in DMSO. Thereafter, the mixture was diluted to 100 uM by using DW and stored on ice.
On the other hand, Thioflavin-T (Sigma-Aldrich) was dissolved to the concentration of 5 mM in 50 mM glycine buffer (pH 8.5). Then, the resultant solution was diluted to the concentration of 50 μM by using 50 mM glycine buffer (pH 8.5) and stored in the dark while light was blocked.
(§3) 25 μL of the reaction solution in which the reaction was completed was added to each well of a 96-well fluorescence assay plate, and 75 μL of the Thioflavin-T solution prepared above was added to each well. After reacting for 5 minutes in the dark at room temperature, fluorescence values were measured at excitation 450 nm and emission 485 nm by using a multi-mode microplate reader.
The fluorescence value of the group (control) treated with Aβ alone and aggregated for 72 hours was considered as 100%, and the measured fluorescence values were expressed as a relative value thereto, and results thereof are shown in FIG. 1 and FIG. 2.
In addition, by performing the same test as described above for 20 μM of various compounds using 50 μM Aβ, the degree of Aβ aggregation was measured, and the result is expressed as a relative value for control (100%).

The target in assay [5] is T2, Aβ1-42. Description: Aβ disaggregation test by Thioflavin T analysis. The settings on record: for amyloid disaggregation effect: Aβ1-42 25 μM; for degree of Aβ aggregation compared to the control: Aβ1-42 25 μM pre-aggregated 72 hours, then 72 hours. It counts as biochemical. How it is done:
(§4) The compound was then used diluted with 6% DMSO (in DW).
Triflupromazine hydrochloride was dissolved to the concentration of 5 mM in DMSO. The compound was then used diluted with 6% DMSO (in DW).
(§5) The Aβ solution was prepared by dissolving Aβ 1-42 monomers to the concentration of 10 mM in DMSO. Thereafter, the mixture was diluted to 100 μM by using DW and stored on ice.
(§6) On the other hand, Thioflavin-T was dissolved to the concentration of 5 mM in 50 mM glycine buffer (pH 8.5). Then, the resultant solution was diluted to the concentration of 50 μM by using 50 mM glycine buffer (pH 8.5) and stored in the dark while light was blocked.
The Aβ solution prepared in Example 2.1. was placed in 1.5 mL microcentrifuge tubes, each having 25 μM of the Aβ solution, and then reacted at 37° C. for 72 hours.
as §3
The fluorescence value of the group (control) treated with Aβ alone and aggregated for 72 hours was considered as 100%, and the measured fluorescence values were expressed as a relative value thereto, and results thereof are shown in FIG. 3 and FIG. 4.

Assay [6] addresses T2, Aβ1-42. Description: Aβ disaggregation test of rifamycin-based derivatives by Thioflavin T analysis. It counts as biochemical. As to conditions: 50 μM compound, 50 μM Aβ1-42 aggregated 3 days, then 2 days of reaction. As for the experimental part: as §4, §5, §6
The Aβ solution prepared in Example 3.1. was placed in 1.5 mL microcentrifuge tubes, each having 50 μM of the Aβ solution, and then reacted at 37° C. for 72 hours.
Each 1.5 mL microcentrifuge tube was treated with 50 μM rifapentine-based derivatives, followed by reaction at 37° C. for 48 hours.
as §3
The fluorescence value of the group (control) treated with Aβ alone and aggregated for 72 hours by treating only Aβ was considered as 100%, and the measured fluorescence values were expressed as a relative value thereto, and results thereof are shown in FIG. 7.

For assay [7], the system named is APP/PS1 TG mice. In words: Y-maze test. The settings on record: 8th week after oral administration; compared to TG-Veh and WT-Veh. It counts as in vivo. An excerpt: Transgenic mice (APP/PS1 TG; Alzheimer' disease animal model; B6C3-Tg(APPswe, PSEN1dE)85Dbo/Mmjax) and wild type mice were derived from Jackson Laboratory (Bar Harbor, Maine, USA). APP/PS1 TG mice crossed with wild-type mice and maintained as double hemizygotes. All genotypes were confirmed by PCR analysis using tail DNA according to the standard PCR conditions of the Jackson Laboratory. Each mouse was housed in a plastic cage in the animal cage and the temperature of the plastic cage was maintained at 21±1° C. in alternating 12 hour light cycle, and the mice were freely fed with food and water.
The control group received the same amount of vehicle (0.5% MC in DW).
Y-maze test was performed using a maze structure made by placing the same three arms 40 cm in length (15 cm in height of the wall) at an angle of 120 degrees. […] The search time was 8 minutes per subject, and the final result was expressed as a spontaneous alteration (%) value. Spontaneous alteration (%) value was calculated by the following formula. […]
Behavioral patterns were analyzed using SMART VIDEO TRACKING Software (Panlab, USA). All data obtained in the experiments were expressed as mean±standard error mean (SEM), and the drug-applied group was compared with the non-drug group, which was a control, by using student's t-test.

Where [8] appears, read: 5× FAD (Tg) mice, cortex and hippocampus tissue, oral 50 mg/kg once every two days for 3 weeks, vs Tg veh.

Structures are written as SMILES.

T2 sequence (P05067 672-713): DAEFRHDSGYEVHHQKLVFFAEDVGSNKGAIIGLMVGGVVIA
T1 sequence (P05067 672-713): as above

`CN(C)CCCN1c2ccccc2Sc2ccc(C(F)(F)F)cc21` [triflupromazine, dimethyl ({3-[2-(trifluoromethyl)-10H-phenothiazin-10-yl]propyl})amine]: in assay [1], the “Aβ disaggregation (bands of aggregated Aβ fibrils and dimers)” value was “concentration-dependent Aβ disaggregation activity”. Further, in assay [2], the number of plaques entry was “reduced” and the “total areas of plaques” value is given as “reduced”. Moreover, in assay [3] (setting [8]), the “P-Tau (phosphorylated Tau)” value is on record as “decreased” and the “T-Tau (Total Tau)” value is “decreased”. Also, in assay [3] (wild type mice (Wt)), the “decrease in phosphorylated Tau (P-Tau)” value is reported as “not observed” and the “decrease in total Tau (T-Tau)” value was “not observed”. Also, in assay [4], the “Aβ aggregation degree compared to the control” value is recorded as not above 70%, the “amyloid aggregation inhibition effect compared to the control” value is not below 30% and the “Aggregation (%)” value turned out to be 49.84%. Besides, in assay [5] (50 μM compound), the amyloid disaggregation effect is reported as not below 35% and the “degree of Aβ aggregation compared to the control” value is on record as not above 65%. In assay [5] (500 μM compound), the amyloid disaggregation effect was not below 75% and the “degree of Aβ aggregation compared to the control” value is not above 25%.

On to `CO[C@H]1/C=C/O[C@@]2(C)Oc3c(C)c(O)c4c(O)c(c(/C=N/N5CCN(C6CCCC6)CC5)c(O)c4c3C2=O)NC(=O)/C(C)=C\C=C\[C@H](C)[C@H](O)[C@@H](C)[C@@H](O)[C@@H](C)[C@H](OC(C)=O)[C@@H]1C` [rifapentine, 3-[[(4-cyclopentyl-1-piperazinyl)imino]methyl]-rifamycin], for which, in assay [6], the “Aβ disaggregation effect compared to the control” value is not below 90% and the “degree of Aβ aggregation compared to the control” value is reported as not above 10%. The “Aβ disaggregation (bands of aggregated Aβ fibrils and dimers)” value in assay [1] was “concentration-dependent Aβ disaggregation activity”. The “spontaneous alteration (%)” value in assay [7] was “increased closer to the positive control group (WT-Veh)”. In addition, in assay [4], the “Aβ aggregation degree compared to the control” value is not above 40%, the “amyloid aggregation inhibition effect compared to the control” value is recorded as not below 60% and the “Aggregation (%)” value amounted to 13.35%. Besides, in assay [5] (50 μM compound), the amyloid disaggregation effect is on record as not below 90% and the “degree of Aβ aggregation compared to the control” value is not above 10%. Further, in assay [5] (500 μM compound), the amyloid disaggregation effect was not below 99% and the “degree of Aβ aggregation compared to the control” value is given as not above 1%.

For the origin of these results see US20240139178A1, “METHOD FOR MANUFACTURING COMPOSITION FOR COMPOSITION FOR INCREASING COGNITIVE FUNCTION” (priority 2018, published 2024).
